Biological target: T1, hA3G degradation mediated by HIV-1 Vif (UniProt P69723+Q9HC16)
T1 construct: expressed in transfected cells
Test: Screening experiment for up-regulation activity to hA3G (YFP-fused hA3G co-expressed with HIV-1 Vif, fluorescence)
Format: cell-based, human
Conditions: YFP fluorescence of cells co-expressing Vif and hA3G-YFP; excitation 485 nm, detection 520 nm; averages of duplicates
Description: Based on the advances making research on the hA3G degradation mediated by HIV-1 Vif, this invention establishes a high throughput anti-HIV-1 drug screening model using hA3G degradation mediated by HIV-1 Vif as target, to screen small molecule active compounds capable of inhibiting this degradation process. The function principle of this model is that HIV-1 Vif protein and hA3G fused yellow fluorescent protein (YFP) co-expressed in the cells, then the intracellular fluorescence intensity (at […]) decreases owing to the degradation of hA3G caused by Vif and subsequent degradation of YEP fused on hA3G. By means of measuring the change of fluorescent intensity, the influence of the screened compounds on the degradation of hA3G caused by Vif can quantitatively be analyzed. Simultaneously, to differentiate the non-specific inhibitory effect of diverse ubiquitin degradation route in the samples, this invention establishes a recheck model based on the detection of P53 degradation caused by the product of adenovirus early gene, to assure that the positive samples screened out by the proposed model can specifically block the degradation of hA3G caused by Vif.
Screening Experiment for Up-Regulation Activity to hA3G
The cells are picked up and cultured a culture bottle. When the cells grow full of the culture bottle, old culture medium is discarded and the cells are digested with digestion medium. When the cells turn round, the digestion medium is discarded and the culture medium is added in at once, the bottom of the bottle is gently blown with a pipette to make the cells disengage the bottle bottom and disperse into single cell suspension. After counting the cells using blood cell counting chamber, the cell suspension is inoculated into a culture dish for transfection. The medium containing the plasmid to be transfected and the transfection reagents is gently mixed up and incubated at room temperature. The medium is then added into the supernatant of the cell culture and cultured for a certain period of time. The old culture medium is then sucked out, the cells are digested with digestive medium, the digestive medium is subsequently discarded and culture medium is immediately added. The medium is gently blown to disperse the cells into single cell suspension. After counting the cells using blood cell counting chamber, the cells are ready for inoculation.
Samples of compounds[…]Pure tested compounds are dissolved in DMSO, the solution is diluted with equal proportional distilled water. The diluent is used to test the cell systems.
Sample solution of different concentration is added into the supernatant of a cell culture. After the cells are continuously cultured, old culture medium is sucked out and the cells are blown with PBS buffer until the cells completely disengage from the culture bottle.
The fluorescence intensity values of the cell suspension with test compound samples, positive control samples and negative control samples are respectively measured with fluorometer, the excitation wavelength is 485 nm and the detection wavelength 520 nm. Averages of duplicated measurements are taken as the results.
The measured fluorescence intensity values of the negative control samples (blink sample) subtracted from those of test compound samples, the results are taken as YFP fluorescence of different groups. Relative fluorescence intensity=fluorescence intensity of a test sample group/fluorescence intensity of the positive control group×100% Inhibition rate of degradation=(test sample group−negative control group)/(positive control group−negative control group)×100%

T1 sequence (P69723 whole entry): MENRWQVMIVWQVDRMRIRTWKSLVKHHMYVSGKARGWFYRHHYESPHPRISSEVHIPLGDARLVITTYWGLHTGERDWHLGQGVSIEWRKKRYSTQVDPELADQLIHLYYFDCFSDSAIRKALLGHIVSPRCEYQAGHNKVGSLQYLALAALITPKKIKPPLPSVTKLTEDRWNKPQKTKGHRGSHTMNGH
T1 sequence (Q9HC16 whole entry): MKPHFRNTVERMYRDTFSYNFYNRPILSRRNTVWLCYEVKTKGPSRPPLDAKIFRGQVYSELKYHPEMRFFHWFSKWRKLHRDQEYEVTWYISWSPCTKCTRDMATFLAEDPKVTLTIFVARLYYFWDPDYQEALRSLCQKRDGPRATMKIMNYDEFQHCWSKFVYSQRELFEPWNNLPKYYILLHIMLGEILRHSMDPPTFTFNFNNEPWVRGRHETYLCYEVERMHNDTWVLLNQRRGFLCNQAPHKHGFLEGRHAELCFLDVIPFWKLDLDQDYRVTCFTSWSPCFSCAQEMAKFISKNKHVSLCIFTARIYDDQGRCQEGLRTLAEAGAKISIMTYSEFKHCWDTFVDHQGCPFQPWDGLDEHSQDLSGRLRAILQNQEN

COc1ccc(C(=O)Nc2cc(OC)c(OC)c(OC)c2)cc1NC(=O)C(C)F (stereo not shown) [Compound 23] was tested. Which “hA3G up-regulation activity (%)” value did it give?
The value was 29.3%.

Which “hA3G up-regulation activity (%)” value does the source give for COc1ccc(C(=O)Cc2cc(OC)c(OC)c(OC)c2)cc1NC(=O)C(C)F (stereo not shown) [Compound 25, 3-(2″-fluoropropionamido)-4-methoxybenzoylmethylene-3′,4′,5′-trimethoxybenzene] here?
Its value is 19.4%.

How did the “hA3G up-regulation activity (%)” value turn out when CCC(=O)Nc1cc(C(=O)Nc2ccc(S(N)(=O)=O)c(F)c2)ccc1OC [Compound 100] was run?
The value was 13.6%.

With COc1ccc(C(=O)Cc2cc(OC)c(OC)c(OC)c2)cc1NC(=O)CF [Compound 20] as the molecule, how does the “hA3G up-regulation activity (%)” value read?
Its value is 56.0%.

For CCC(=O)Nc1cc(S(=O)(=O)Nc2cc(OC)c(OC)c(OC)c2)ccc1OC [Compound 83, N-(3′,4′,5′-trimethoxyphenyl) 3-propionamido-4-methoxybenzenesulfamide], which “hA3G up-regulation activity (%)” value is on record?
Its value is 31.0%.

CCC(=O)Nc1cc(S(=O)(=O)Nc2ccc(OC)c(OC)c2)cc(F)c1OC [Compound 95] was tested. Which “hA3G up-regulation activity (%)” value did it give?
The value was 8.7%.

With CCC(=O)Oc1cc(C(=O)Nc2cc(OC)c(OC)c(OC)c2)ccc1OC [Compound 86] as the molecule, how does the “hA3G up-regulation activity (%)” value read?
The value was 20.3%.

Which “hA3G up-regulation activity (%)” value does the source give for CCC(=O)Nc1cc(S(=O)(=O)Oc2cc(OC)c(OC)c(OC)c2)ccc1OC [Compound 84, 3′,4′,5′-trimethoxyphenyl 3-propionamido-4-methoxybenzenesulfonate] here?
The value was 9.0%.

For COc1ccc(C(=O)Sc2cc(OC)c(OC)c(OC)c2)cc1NC(C)=O [Compound 22], which “hA3G up-regulation activity (%)” value is on record?
Its value is 24.6%.

COc1ccc(C(=O)Oc2cc(OC)c(OC)c(OC)c2)cc1N [Compound 4] was tested. Which “hA3G up-regulation activity (%)” value did it give?
The value was 1.6%.

With COc1cc(NC(=O)c2cc(NC(C)=O)cc(C(F)(F)F)c2)cc(OC)c1OC [Compound 74] as the molecule, how does the “hA3G up-regulation activity (%)” value read?
The value was 8.5%.

With CCC(=O)Nc1cc(C(=O)Nc2cccc(OC)c2)ccc1OC [Compound 46] as the molecule, how does the “hA3G up-regulation activity (%)” value read?
Its value is 29.1%.

For CCC(=O)Nc1cc(NS(=O)(=O)c2cc(OC)nc(OC)n2)ccc1OC [Compound 92], which “hA3G up-regulation activity (%)” value is on record?
Its value is 23.7%.

With CCC(=O)Nc1cc(S(=O)(=O)Nc2cc(OC)nc(OC)n2)ccc1OC [Compound 93] as the molecule, how does the “hA3G up-regulation activity (%)” value read?
The value was 34.2%.

With COc1ccc(C(=O)Nc2cc(OC)c(OC)c(OC)c2)cc1NS(C)(=O)=O [Compound 101] as the molecule, how does the “hA3G up-regulation activity (%)” value read?
The value was 22.1%.

For CCC(=O)Nc1cc(C(=O)Nc2ccc(OC(F)(F)F)cc2)ccc1C [Compound 69, N-(4′-trifluoromethoxyphenyl)-3-propionamido-4-methylbenzamide], which “hA3G up-regulation activity (%)” value is on record?
Its value is 31.2%.

CCC(=O)Nc1cc(NC(=O)c2cc(OC)c(OC)c(OC)c2)ccc1OC [Compound 59] was tested. Which “hA3G up-regulation activity (%)” value did it give?
The value was 19.8%.

How did the “hA3G up-regulation activity (%)” value turn out when CCC(=O)Nc1cc(C(=O)Nc2cc(OC)ncn2)ccc1OC [Compound 47] was run?
The value was 18.2%.

How did the “hA3G up-regulation activity (%)” value turn out when COc1ccc(C(=O)Nc2cc(OC)c(OC)c(OC)c2)cc1NC(=O)CF [Compound 17] was run?
The value was 31.1%.

For CNc1cc(C(=O)Nc2cc(OC)c(OC)c(OC)c2)ccc1O [Compound 34], which “hA3G up-regulation activity (%)” value is on record?
The value was 38.3%.

With COc1ccc(C(=O)Sc2cc(OC)c(OC)c(OC)c2)cc1N [Compound 5, S-(3′,4′,5′-trimethoxyphenyl) 3-amino-4-methoxybenzenecarbothioate] as the molecule, how does the “hA3G up-regulation activity (%)” value read?
The value was 14.4%.

With CCC(=O)Nc1cc(NS(=O)(=O)c2cc(OC)c(OC)c(OC)c2)ccc1OC [Compound 91, N-(3′-propionamido-4′-methoxyphenyl)-(3,4,5-trimethoxy)benzenesulfonamide] as the molecule, how does the “hA3G up-regulation activity (%)” value read?
The value was 16.6%.

With CCC(=O)Nc1cc(C(=O)Cc2cc(OC)c(OC)c(OC)c2)ccc1OC [Compound 10, 1′-(3-propionamido-4-methoxy-benzoyl)methylene-3′,4′,5′-trimethoxybenzene] as the molecule, how does the “hA3G up-regulation activity (%)” value read?
The value was 28.9%.

For CNc1cc(C(=O)Nc2cc(OC)nc(OC)n2)ccc1O [Compound 3, N-(2′,6′-dimethoxypyrimidinyl-4′-) 3-methylamino-4-hydroxylbenzamide], which “hA3G up-regulation activity (%)” value is on record?
The value was 20.2%.

CCC(=O)Nc1cc(C(=O)Nc2ccccc2)ccc1OC [Compound 60] was tested. Which “hA3G up-regulation activity (%)” value did it give?
The value was 16.3%.
